Here are results for 1 molecule from patent US12083082B2, “Methods for treating neurodegenerative disorders” (Alzheon, Inc., priority 2018, dated 2024).

One may read the Tmax as the time from dosing to the highest level. For orientation: Cmax means the maximum level reached in the sampled fluid or tissue. As usually defined, the t½ is the time in which the quantity being followed falls by half. Read a low t½ as fast loss.

The nature of the data set: Oral and iv pharmacokinetics of 3-SPA in male SD rats. It is filed as in vivo, Sprague-Dawley rats. On the procedure: The oral and iv pharmacokinetics of 3-SPA was evaluated in male Sprague-Dawley fasted rats at a dose of 30 mg/kg and 10 mg/kg respectively (n=3 per groups). Animals were housed in a standard facility, with water and food was provided ad libitum to the experiment. 3-SPA was dissolved in saline, was administered orally by gavage and intravenously as a bolus. Serial blood samples (approximately 1.0 mL each) were collected from each animal at 0.25, 0.5, 1, 2, 4, 8 and 24 hours after dosing into tubes containing K2EDTA and processed for plasma by centrifugation. Plasma samples were stored at −80° C. until bioanalyses.
A separate group of animals was dosed orally at 30 mg/kg and terminal brain, CSF and plasma samples were collected at 1, 2, 6, and 24 hr (3 animals for each time point) for bioanalyses of 3-SPA in brain and CSF, and to estimate brain penetration relative to plasma concentrations. The in-life study was performed at Agilux Laboratories (Worcester, MA) following quality standards in line with Good Laboratory Practice. Bioanalyses of rat plasma, CSF and brain was preformed using LC-MS/MS at Nextcea. Prior to processing rat brains for bioanalysis, the brains were perfused to remove pooled blood. Pharmacokinetic data analyses were conducted using Winnonlin Professional v5.0.1 (Pharsight, Mountain View, CA).
The plasma concentration of a single dose of 3-SPA, dissolved in saline as a clear solution, administered orally and intravenously to rats at a dose level of 30 mg/kg and 10 mg/kg, respectively, are shown in FIG. 9. Brain, CSF and corresponding plasma levels after a single oral dose of dose of 30 mg/kg of 3-SPA at 1, 2, 6, and 24 hr are shown in FIG. 10. Mean PK curves were used for calculation of pharmacokinetic parameters.

Read-outs that look alike come from different tables or passages of the source.

Regarding `O=C(O)CCS(=O)(=O)O` [3-SPA, 3-sulfopropanoic acid], the Tmax (Sprague-Dawley, rat, iv 10 mg/kg, plasma, read-out: Tmax) amounted to 4.8 min. Besides, where the note is “iv 10 mg/kg”, the Cl_obs came to 45 mL/min/kg, the Vss_obs turned out to be 12.9 L/kg and the Vz_obs stood at 43.6 L/kg. For the setting “iv 10 mg/kg, plasma”, the “AUC 0-inf_obs” value amounted to 3638 ng·h/mL, the “AUC 0-t” value was 3407 ng·h/mL, the C0 was determined as 13599 ng/mL and the Cmax worked out at 7484 ng/mL. In addition, the t½ (iv 10 mg/kg, plasma) worked out at 659.4 min. The “Oral Bioavailability” value (oral 30 mg/kg vs iv 10 mg/kg) is listed as ~100%. In addition, where the note is “oral 30 mg/kg, plasma”, the “AUC 0-inf_obs” value came out at 19061 ng·h/mL, the “AUC 0-t” value came out at 18894 ng·h/mL, the Cmax turned out to be 8943 ng/mL and the Lambda_z amounted to 0.16 h⁻¹. Moreover, under “oral 30 mg/kg, plasma”, the Tmax came out at 30 min and the t½ is 264 min.
